Experimental data: PMC13070491, “Single-nucleus transcriptomics, pharmacokinetics, and pharmacodynamics of CDK4/6 and mTOR inhibition in a Phase 0/1 trial of recurrent high-grade glioma” (Neuro-Oncology, 2025)

System: GB126, GB239 and GB86 patient-derived cell lines
Test: In vitro single-cell RNA sequencing, analyses across the cell lines (pseudobulk differential gene expression, GSEA, non-cycling cells)
Assay type: cell-based, human
Settings: pseudobulk, ribociclib versus control (DMSO)
Method: Patient-derived glioma stem cell lines (GSCs; GB126, GB86, and GB239) were established from resected GBM tumor tissue. Cell lines were genetically profiled for mutations and copy number aberrations using the IvySeq custom gene panel. […] GB239 was derived from a tumor sample included in this Phase 0 trial (tumor sample: 100-0039). All human GSCs were cultured as described previously.[12]
Following the fifth day of drug exposure, cells were harvested, cryopreserved to be processed at a later point, or immediately processed for single-cell RNA sequencing (10x Genomics, 3’ version 3). The single-cell RNA sequencing data were then processed via cellranger count and Seurat. Briefly, cells were filtered out based on the following criteria: minimum number of genes detected >500 and <10 000 with a maximum percentage of mitochondrial genes set to 10%. Statistical assessment was made between the malignant proportions of each cell state using a 2-sided paired t-test.
Descriptive statistics of the clinical data are included in Table 1. Comparisons between groups were conducted using a 2-sided or paired 2-sided t-test, where indicated. P < .05 was considered significant. Multiple hypothesis test corrections (ie, false discovery rate correction) were applied for snRNAseq pseudobulk differential expression analysis.

Question: For CN(C)C(=O)c1cc2cnc(Nc3ccc(N4CCNCC4)cn3)nc2n1C1CCCC1 [ribo], which “log2FoldChange CYSLTR2” value (gene CYSLTR2) is on record?
Answer: Its value is 1.514.

Question: And the “log2FoldChange CYYR1-AS1” value (gene CYYR1-AS1)?
Answer: The value was 1.511.

Question: And the “log2FoldChange DDO” value (gene DDO)?
Answer: The value was 1.495.

Question: And the log2FoldChange (gene DEPDC1B)?
Answer: Its log2FoldChange is -1.796.

Question: And the log2FoldChange (gene DERL3)?
Answer: The log2FoldChange was -1.095.

Question: What about the log2FoldChange (gene DHFR) of the same molecule?
Answer: Its log2FoldChange is -1.766.

Question: What about the log2FoldChange (gene DIAPH3-AS2) of the same molecule?
Answer: The log2FoldChange was -1.671.

Question: What about the log2FoldChange (gene DNA2) of the same molecule?
Answer: The log2FoldChange was -1.693.

Question: What about the “log2FoldChange DSCR8” value (gene DSCR8) of the same molecule?
Answer: Its value is 1.633.

Question: What about the log2FoldChange (gene DTL) of the same molecule?
Answer: Its log2FoldChange is -1.106.

Question: And the log2FoldChange (gene ECT2)?
Answer: Its log2FoldChange is -1.057.

Question: And the “log2FoldChange FAM71F1” value (gene FAM71F1)?
Answer: The value was 1.476.

Question: What about the log2FoldChange (gene FAM72D) of the same molecule?
Answer: Its log2FoldChange is -1.625.

Question: What about the “log2FoldChange FAM189A2” value (gene FAM189A2) of the same molecule?
Answer: The value was 1.685.

Question: What about the log2FoldChange (gene FANCG) of the same molecule?
Answer: The log2FoldChange was -1.109.

Question: What about the log2FoldChange (gene FBLN1) of the same molecule?
Answer: Its log2FoldChange is -1.678.

Question: What about the log2FoldChange (gene FEN1) of the same molecule?
Answer: Its log2FoldChange is -1.753.

Question: And the log2FoldChange (gene FGFR3)?
Answer: Its log2FoldChange is -1.106.

Question: What about the “log2FoldChange FSHR” value (gene FSHR) of the same molecule?
Answer: The value was 1.906.

Question: And the “log2FoldChange GBP6” value (gene GBP6)?
Answer: The value was 1.725.

Question: And the “log2FoldChange GDF3” value (gene GDF3)?
Answer: The value was 1.697.

Question: And the log2FoldChange (gene GINS2)?
Answer: The log2FoldChange was -1.846.

Question: What about the log2FoldChange (gene GLI1) of the same molecule?
Answer: The log2FoldChange was -1.086.

Question: And the log2FoldChange (gene GMNN)?
Answer: The log2FoldChange was -1.627.

Question: What about the “log2FoldChange HABP2” value (gene HABP2) of the same molecule?
Answer: The value was 1.889.

Question: What about the log2FoldChange (gene HAUS8) of the same molecule?
Answer: Its log2FoldChange is -1.09.

Question: And the “log2FoldChange HEPH” value (gene HEPH)?
Answer: The value was 1.499.

Question: And the “log2FoldChange HGFAC” value (gene HGFAC)?
Answer: Its value is 1.4467.

Question: And the log2FoldChange (gene HIRIP3)?
Answer: Its log2FoldChange is -1.608.

Question: What about the log2FoldChange (gene HIST1H1C) of the same molecule?
Answer: The log2FoldChange was -1.863.

Question: What about the log2FoldChange (gene HIST1H3H) of the same molecule?
Answer: The log2FoldChange was -1.783.

Question: What about the “log2FoldChange HKDC1” value (gene HKDC1) of the same molecule?
Answer: Its value is 1.5426.

Question: And the log2FoldChange (gene IL1A)?
Answer: Its log2FoldChange is -1.056.

Question: And the log2FoldChange (gene IL2RB)?
Answer: The log2FoldChange was -1.0626.

Question: What about the log2FoldChange (gene INCENP) of the same molecule?
Answer: The log2FoldChange was -1.833.

Question: And the “log2FoldChange ITIH6” value (gene ITIH6)?
Answer: Its value is 1.766.

Question: And the log2FoldChange (gene KCNAB3)?
Answer: The log2FoldChange was -1.628.

Question: And the “log2FoldChange KISS1” value (gene KISS1)?
Answer: Its value is 2.005.

Question: And the log2FoldChange (gene KNTC1)?
Answer: The log2FoldChange was -1.6836.

Question: What about the “log2FoldChange LINC00239” value (gene LINC00239) of the same molecule?
Answer: The value was 1.81.

Question: What about the “log2FoldChange LINC00587” value (gene LINC00587) of the same molecule?
Answer: The value was 1.439.

Question: And the “log2FoldChange LINC00601” value (gene LINC00601)?
Answer: The value was 1.889.

Question: What about the “log2FoldChange LINC00645” value (gene LINC00645) of the same molecule?
Answer: The value was 1.665.

Question: What about the “log2FoldChange LINC00844” value (gene LINC00844) of the same molecule?
Answer: The value was 1.919.

Question: And the “log2FoldChange LINC00892” value (gene LINC00892)?
Answer: Its value is 1.448.

Question: What about the “log2FoldChange LINC00901” value (gene LINC00901) of the same molecule?
Answer: The value was 2.0689.

Question: And the “log2FoldChange LINC00903” value (gene LINC00903)?
Answer: Its value is 1.858.

Question: What about the “log2FoldChange LINC00943” value (gene LINC00943) of the same molecule?
Answer: The value was 1.485.

Question: What about the “log2FoldChange LINC00992” value (gene LINC00992) of the same molecule?
Answer: Its value is 1.834.

Question: What about the log2FoldChange (gene LINC01337) of the same molecule?
Answer: The log2FoldChange was -1.849.

Question: What about the “log2FoldChange LINC01496” value (gene LINC01496) of the same molecule?
Answer: Its value is 1.714.

Question: What about the “log2FoldChange LINC01630” value (gene LINC01630) of the same molecule?
Answer: The value was 1.508.

Question: And the “log2FoldChange LINC01822” value (gene LINC01822)?
Answer: Its value is 1.567.

Question: And the “log2FoldChange LINC02073” value (gene LINC02073)?
Answer: Its value is 1.471.

Question: What about the log2FoldChange (gene LINC02137) of the same molecule?
Answer: The log2FoldChange was -1.093.

Question: What about the “log2FoldChange LINC02243” value (gene LINC02243) of the same molecule?
Answer: Its value is 1.564.

Question: And the “log2FoldChange LINC02320” value (gene LINC02320)?
Answer: Its value is 1.543.

Question: And the “log2FoldChange LINC02349” value (gene LINC02349)?
Answer: The value was 1.483.

Question: What about the “log2FoldChange LINC02450” value (gene LINC02450) of the same molecule?
Answer: The value was 1.635.

Question: And the “log2FoldChange LINC02552” value (gene LINC02552)?
Answer: Its value is 1.805.

Question: What about the “log2FoldChange LINC02625” value (gene LINC02625) of the same molecule?
Answer: The value was 1.633.

Question: What about the log2FoldChange (gene LINC02757) of the same molecule?
Answer: The log2FoldChange was -1.715.

Question: What about the “log2FoldChange LINC02831” value (gene LINC02831) of the same molecule?
Answer: The value was 1.506.

Question: What about the “log2FoldChange LNX1-AS1” value (gene LNX1-AS1) of the same molecule?
Answer: Its value is 1.468.

Question: What about the log2FoldChange (gene LPL) of the same molecule?
Answer: Its log2FoldChange is -1.817.

Question: And the log2FoldChange (gene LRRC26)?
Answer: Its log2FoldChange is -1.7868.

Question: What about the “log2FoldChange MARVELD3” value (gene MARVELD3) of the same molecule?
Answer: The value was 1.752.

Question: And the “log2FoldChange MCHR1” value (gene MCHR1)?
Answer: Its value is 1.5856.

Question: What about the log2FoldChange (gene MCM8) of the same molecule?
Answer: The log2FoldChange was -1.112.

Question: What about the “log2FoldChange MGP” value (gene MGP) of the same molecule?
Answer: The value was 1.798.

Question: What about the log2FoldChange (gene MMS22L) of the same molecule?
Answer: Its log2FoldChange is -1.0936.

Question: And the log2FoldChange (gene MND1)?
Answer: The log2FoldChange was -1.879.

Question: And the “log2FoldChange MYH7” value (gene MYH7)?
Answer: The value was 1.782.

Question: And the “log2FoldChange NAT2” value (gene NAT2)?
Answer: The value was 2.867.

Question: And the “log2FoldChange NCAN” value (gene NCAN)?
Answer: Its value is 1.62.

Question: What about the log2FoldChange (gene NCAPD2) of the same molecule?
Answer: The log2FoldChange was -1.822.

Question: What about the log2FoldChange (gene NEMP2) of the same molecule?
Answer: Its log2FoldChange is -1.111.

Question: What about the log2FoldChange (gene NEUROD4) of the same molecule?
Answer: The log2FoldChange was -1.88.

Question: And the “log2FoldChange NHLRC4” value (gene NHLRC4)?
Answer: Its value is 1.795.

Question: And the “log2FoldChange NMRK2” value (gene NMRK2)?
Answer: Its value is 1.566.

Question: What about the log2FoldChange (gene NOSTRIN) of the same molecule?
Answer: The log2FoldChange was -1.881.

Question: And the log2FoldChange (gene NT5M)?
Answer: Its log2FoldChange is -1.088.

Question: What about the log2FoldChange (gene NUP210) of the same molecule?
Answer: Its log2FoldChange is -1.755.

Question: And the log2FoldChange (gene PALM3)?
Answer: Its log2FoldChange is -1.6379.

Question: What about the log2FoldChange (gene PASK) of the same molecule?
Answer: Its log2FoldChange is -1.1089.

Question: What about the “log2FoldChange PCP4L1” value (gene PCP4L1) of the same molecule?
Answer: The value was 2.139.

Question: What about the log2FoldChange (gene PHF19) of the same molecule?
Answer: Its log2FoldChange is -1.68.

Question: What about the “log2FoldChange PLA2G5” value (gene PLA2G5) of the same molecule?
Answer: Its value is 2.135.

Question: And the “log2FoldChange PLAAT4” value (gene PLAAT4)?
Answer: The value was 1.529.

Question: And the log2FoldChange (gene PMAIP1)?
Answer: Its log2FoldChange is -1.131.

Question: What about the log2FoldChange (gene POLQ) of the same molecule?
Answer: Its log2FoldChange is -1.824.

Question: What about the “log2FoldChange PPP1R1C” value (gene PPP1R1C) of the same molecule?
Answer: Its value is 1.557.

Question: What about the “log2FoldChange PROK2” value (gene PROK2) of the same molecule?
Answer: Its value is 1.695.

Question: What about the log2FoldChange (gene PRR11) of the same molecule?
Answer: Its log2FoldChange is -1.758.

Question: And the log2FoldChange (gene PSMC3IP)?
Answer: The log2FoldChange was -1.597.

Question: What about the “log2FoldChange PTGDS” value (gene PTGDS) of the same molecule?
Answer: The value was 2.458.

Question: And the “log2FoldChange RAB7B” value (gene RAB7B)?
Answer: The value was 1.47.

Question: And the log2FoldChange (gene RACGAP1)?
Answer: Its log2FoldChange is -1.841.

Question: And the log2FoldChange (gene RAD51)?
Answer: The log2FoldChange was -1.643.

Question: And the log2FoldChange (gene RADIL)?
Answer: Its log2FoldChange is -1.781.

Question: And the log2FoldChange (gene RBBP8)?
Answer: Its log2FoldChange is -1.095.

Question: What about the log2FoldChange (gene RDM1) of the same molecule?
Answer: Its log2FoldChange is -1.73.

Question: What about the log2FoldChange (gene REXO5) of the same molecule?
Answer: Its log2FoldChange is -1.094.

Question: And the log2FoldChange (gene RHBDL3)?
Answer: The log2FoldChange was -1.639.

Question: What about the “log2FoldChange RNASE6” value (gene RNASE6) of the same molecule?
Answer: The value was 1.784.

Question: And the log2FoldChange (gene RPA3)?
Answer: The log2FoldChange was -1.063.

Question: And the “log2FoldChange RSPH1” value (gene RSPH1)?
Answer: The value was 1.529.

Question: What about the log2FoldChange (gene RTKN2) of the same molecule?
Answer: The log2FoldChange was -1.715.
